Paper PMC10397291, “Molecular pathway and structural mechanism of human oncochannel TRPV6 inhibition by the phytocannabinoid tetrahydrocannabivarin” (Nature Communications, 2023)
Numbering of substitutions follows the chain as printed. “And” between values parts separate entries of the source, which are not always exact repeats. Equal entries are not always repeated.

Assays:
wild-type human TRPV6 = target: T1, wild-type human TRPV6 (Homo sapiens, UniProt Q9H1D0); assay: Fura-2 AM Ca2+ uptake, HEK 293 cells expressing wild-type hTRPV6; format: cell-based; conditions: for Ca2+ uptake activation by calcium (source data Suppl. Fig. 4m): replicates
T1 construct: Full-length wild-type or mutant human TRPV6 was expressed in HEK 293S cells as described above; expressed in transfected cells; host or cells: HEK 293S GnTI- (baculovirus/BacMam transduction)
T1 sequence (Q9H1D0 41-765 limits assumed): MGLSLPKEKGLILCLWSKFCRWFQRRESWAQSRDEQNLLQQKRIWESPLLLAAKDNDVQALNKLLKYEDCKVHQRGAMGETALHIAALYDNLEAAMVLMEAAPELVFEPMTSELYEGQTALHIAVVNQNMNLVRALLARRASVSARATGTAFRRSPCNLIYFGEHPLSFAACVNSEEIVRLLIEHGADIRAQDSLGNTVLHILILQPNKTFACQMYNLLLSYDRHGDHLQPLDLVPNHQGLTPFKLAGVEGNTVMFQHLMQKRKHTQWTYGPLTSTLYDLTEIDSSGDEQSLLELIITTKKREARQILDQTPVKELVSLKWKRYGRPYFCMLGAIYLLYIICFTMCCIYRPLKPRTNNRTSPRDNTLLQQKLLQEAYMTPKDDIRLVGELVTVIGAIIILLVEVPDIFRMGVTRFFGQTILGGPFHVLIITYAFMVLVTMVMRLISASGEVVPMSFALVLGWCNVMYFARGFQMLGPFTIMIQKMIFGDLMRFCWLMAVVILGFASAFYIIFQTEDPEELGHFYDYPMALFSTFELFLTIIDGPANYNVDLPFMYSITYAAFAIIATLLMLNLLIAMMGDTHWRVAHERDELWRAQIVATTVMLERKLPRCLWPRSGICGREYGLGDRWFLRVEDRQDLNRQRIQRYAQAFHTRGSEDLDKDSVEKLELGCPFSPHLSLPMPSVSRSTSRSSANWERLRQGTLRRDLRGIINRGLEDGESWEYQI

A561W mutant hTRPV6 = target: T2, A561W mutant hTRPV6 (Homo sapiens, UniProt Q9H1D0, A601W); assay: Fura-2 AM Ca2+ uptake, A561W mutant hTRPV6; format: cell-based; conditions: for Ca2+ uptake activation by calcium (source data Suppl. Fig. 4m): replicates
T2 construct: Full-length wild-type or mutant human TRPV6 was expressed in HEK 293S cells as described above; expressed in transfected cells; host or cells: HEK 293S GnTI- (baculovirus/BacMam transduction)
T2 sequence (Q9H1D0 41-765 A601W limits assumed): T1 sequence (Q9H1D0 41-765 limits assumed) with A561W

In the case of `[Ca+2]` [Ca2+, calcium], the “Ca2+ uptake activation by calcium (source data Suppl. Fig. 4m)” value (“Ca2+ uptake activation by calcium” for short) (wild-type human TRPV6; [Ca2+] 0.03 μM) is reported as 0.059 and 0.056, the “Ca2+ uptake activation by calcium” value (wild-type human TRPV6; [Ca2+] 0.1 μM as printed) is reported as 0.148 and 0.129 and 0.145 and the “Ca2+ uptake activation by calcium” value (wild-type human TRPV6; [Ca2+] 0.3 μM) is reported as 0.244 and 0.265 and 0.281. For the same compound, the “Ca2+ uptake activation by calcium” value (wild-type human TRPV6; [Ca2+] 1 μM) was 0.511 and 0.472 and 0.518, the “Ca2+ uptake activation by calcium” value (wild-type human TRPV6; [Ca2+] 3 μM) was 0.695 and 0.635 and 0.487 and the “Ca2+ uptake activation by calcium” value (wild-type human TRPV6; [Ca2+] 10 μM) was 0.860 and 0.865 and 0.841. The “Ca2+ uptake activation by calcium” value (wild-type human TRPV6; [Ca2+] 30 μM) was 0.968 and 0.974 and 0.810, the “Ca2+ uptake activation by calcium” value (wild-type human TRPV6; [Ca2+] 100 μM [sic]) was 1.095 and 1.004 and 0.9075 and the EC50 (wild-type human TRPV6; wild type, n = 3, read-out: EC50, Ca2+ uptake activation by calcium) was 1050 ± 30 µM. The EC50 (A561W mutant hTRPV6; A561W, n = 3, read-out: EC50, Ca2+ uptake activation by calcium) was 390 ± 20 µM, the “Ca2+ uptake activation by calcium” value (A561W mutant hTRPV6; [Ca2+] 0.03 μM) was 0.106 and 0.118 and 0.152 and the “Ca2+ uptake activation by calcium” value (A561W mutant hTRPV6; [Ca2+] 0.1 μM as printed) was 0.236 and 0.231 and 0.240. For the same compound, the “Ca2+ uptake activation by calcium” value (A561W mutant hTRPV6; [Ca2+] 0.3 μM) was 0.490 and 0.403 and 0.508, the “Ca2+ uptake activation by calcium” value (A561W mutant hTRPV6; [Ca2+] 1 μM) was 0.733 and 0.679 and 0.730 and the “Ca2+ uptake activation by calcium” value (A561W mutant hTRPV6; [Ca2+] 3 μM) was 0.836 and 0.697 and 0.797. For the same compound, the “Ca2+ uptake activation by calcium” value (A561W mutant hTRPV6; [Ca2+] 10 μM) was 0.981 and 0.903 and 0.908, the “Ca2+ uptake activation by calcium” value (A561W mutant hTRPV6; [Ca2+] 30 μM) was 0.978 and 0.996 and 0.899 and the “Ca2+ uptake activation by calcium” value (A561W mutant hTRPV6; [Ca2+] 100 μM [sic]) was 0.9879 and 1.061 and 0.9929.
